# Source: patent US20230183241A1, “CRYSTAL OF A HYPOXANTHINE COMPOUND” (Kissei Pharmaceutical Co., Ltd., priority 2020, published 2023)
# Read-outs that look alike come from different tables or passages of the source.
# Legend:
# Solid stability test = type: physicochemical; conditions: open condition at 40° C., 1 month; for Amount of the mass change of the compound 1: HPLC area normalization; for Crystal form change: powder X-ray diffraction; for Properties: appearance White powder
# Protocol: Test Example 4: Solid Stability Test
# Physicochemical stability and chemical stability for crystals of compound 1 (crystal forms I to IV) were examined.
# Physicochemical stability: Each crystal was stored under open condition at 40° C. The powder X-ray diffraction of the sample was measured at the initial point and 1 month later, and the change in crystal form was confirmed. The change in properties was also observed at the same time. Chemical stability: Each crystal was stored under open condition at 40° C. The mass of the compound 1 was measured under the following HPLC measurement conditions at the initial point and 1 month later. [HPLC conditions] Detector: Ultraviolet and visible absorptiometer/wavelength: 225 nm
# Column: L-column2 ODS, 3 μm, 4.6×150 mm (Chemicals Evaluation and Research Institute)
# Column temperature: Constant temperature around 40° C. Flow rate: 1.0 mL/min Mobile phase A: A solution which was prepared with phosphoric acid to pH 2.3 after dissolving potassium dihydrogen phosphate in water to 20 mmol/L Mobile phase B: Acetonitrile Mobile phase ratios 0 to 30 minutes: mobile phase A/mobile phase B=81/19 30 to 50 minutes: mobile phase A/mobile phase B=81/19 to 25/75 50 to 55 minutes: mobile phase A/mobile phase B=25/75 55 to 55.01 minutes: mobile phase A/mobile phase B=25/75 to 81/19 55.01 to 75 minutes: mobile phase A/mobile phase B=81/19 Amount of injection: 5 μL Sample cooler: 4° C. Dissolution solvent: Mixed solution (mobile phase A/acetonitrile=75/25) Sample solution: Sample was dissolved in dissolution solvent and adjusted to about 1.0 mg/mL
# Excluding the peaks derived from the blank, the peak areas of the compound 1 and an analogous substance were measured by automatic integration, and the mass of the compound 1 was calculated by area normalization method. Further, the amount of the mass change of the compound 1 after the storage was calculated.
# [1] = tested on: TNBS induced colitis model rat; test: Therapeutic effect in colitis model: suppression of intestinal permeability (FITC); type: in vivo; conditions: 3 mg/kg orally once a day for 3 days, serum FITC
# Protocol: Test Example 2 Therapeutic Effect in Colitis Model
# (1) TNBS Induced Colitis Model Rat
# Thus, the suppressive effect on the intestinal permeability based on oral administration of the test compound was evaluated as an indicator of medicinal efficacy.
# SD male rats: 8-week-old SLC (Japan SLC) were used. Under pentobarbital anesthesia, 300 μL of TNBS (28 mg/mL) which was prepared by 50% ethanol was administered at a point 8 cm from the anus in the large intestine to cause inflammation. To the solvent-treated group was administrated 300 μL of 50% ethanol. Animals were fasted for 48 hours prior to administration of TNBS. The test compound (3 mg/kg) prepared by 0.05% methylcellulose solution was orally administered once a day from the next day, and it was administered for a total of 3 days. After administering for 3 days, 50 mg/kg FITC was orally administered 4 hours after the administration of the test compound. Blood samples were collected from jugular vein under isoflurane anesthesia after 4 hours. The serum was centrifuged and fluorescence intensity was detected by PHERAstar FSX (BMG Labtech) to measure the concentration of FITC permeating into circulating blood through the mesentery. The suppressive rate on the intestinal permeability of the test compound was calculated based on the value of the test substance-free group as 0 and the value of the TNBS-untreated group as 100.
# human PHD2184-418 = biological target: T1, human PHD2184-418 (Homo sapiens, UniProt Q9GZT9); test: PHD2 inhibitory test (fluorescence polarization, FITC-labeled HIF-1α556-574); conditions: human PHD2 binding inhibitory activity; 2 μM 2-oxoglutarate, 37° C., 60 minutes
# T1 construct: containing amino acid residues 184 to 418 of the protein represented by CAC42509; histidine tag (N); made in house; host or cells: E. coli BL21 (DE3), pET-30a(+) vector
# T1 sequence (Q9GZT9 184-418): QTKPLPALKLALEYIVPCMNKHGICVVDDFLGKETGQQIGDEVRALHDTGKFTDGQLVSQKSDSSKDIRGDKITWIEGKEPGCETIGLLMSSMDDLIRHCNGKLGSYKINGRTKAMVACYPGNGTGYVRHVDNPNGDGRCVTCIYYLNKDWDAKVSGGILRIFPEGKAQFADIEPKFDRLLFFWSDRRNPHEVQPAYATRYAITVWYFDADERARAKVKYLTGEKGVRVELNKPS
# Protocol: Test Example 1 PHD2 Inhibitory Test
# (1) Expression and preparation of human PHD2184-418
# Human PHD2184-418 containing amino acid residues 184 to 418 of the protein represented by CAC42509 (GenBank accession ID) was expressed and prepared by the following method.
# An expression construct of human PHD2184-418 containing N-terminal histidine tag was introduced into pET-30α (+) vector, and the sequence was confirmed. This vector was introduced into BL21 (DE3) strain and cultured at 37° C. in LB medium containing antibiotics. After culturing, a cell lysis solution was added to the cells, and then the cells were disrupted and suspended by sonication. The disrupted suspension was centrifuged and the supernatant was purified by Ni column to give human PHD2184-418.
# Human HIF-1α556-574 (FITC-labeled HIF-1α556-574), containing FITC-Ahx at the N-terminal of HIF-1α556-574 containing amino acid residues 556 to 574 (partial peptide) of human HIF-1α was used as a substrate. Using FITC-labeled HIF-1α556-574, the competitive inhibition between 2-oxoglutarate and the test compound (PHD inhibitor) was evaluated based on the change in fluorescence polarization of FITC-labeled HIF-1α556-574 by the following method.
# An enzyme (human PHD2184-418) and the substrate were diluted with an assay buffer (pH 7.4) containing 10 mM HEPES, 150 mM NaCl, 10 μM MnCl2-4H2O, 2 μM 2-oxoglutarate and 0.05% Tween-2θ. […]
# [2] = Rat PK study: concentration of compounds in large intestine tissue and plasma; type: in vivo; conditions: male, SD, 3 mg/kg oral
# Protocol: Test Example 3 Concentration of Compounds in Large Intestine Tissue
# The test compound (3 mg/kg/5 mL) prepared with 0.05% methylcellulose was orally administered to non-fasted rats (SD, 8-week-old, male, Japan SLC). Blood samples were collected from jugular vein at 0.25, 0.5, 1, 2, 4, 6 and 8 hours after the administration. Laparotomy was performed under isoflurane anesthesia and large intestine was isolated. The collected distal large intestine (about 5 cm) was cut open, and then the large intestine extracted was washed with saline on a dish. After washing, the large intestine was minced with small scissors. About 150 mg thereof was moved to a tube. To the tube was added 100 μL of saline, and the mixture was homogenized using shake master (1000 rpm×30 minutes). Samples were prepared by the addition with quadruple volume of saline as the final volume. The concentrations of the test compound in the large intestine tissue and the plasma were measured through a quantitative analysis using liquid chromatography-mass spectrometry (LC/MS).
# As the comparative example, a compound described as example 55 in US2015/0239889 (WO2014/030716) (Compound A) was used.
# Symbols in the table have the following meanings. Compound A: comparative example Cmax: maximum plasma concentration of the test compound in the case of oral administration (ng/mL) AUC: area under the plasma test compound concentration-time curve (ng*min/mL) Plasma: plasma test compound concentration after 8 hours (ng/mL) Colon: concentration of the test compound in the large intestine tissue after 8 hours (ng/g) C/P: ratio of the above Colon and Plasma
Amount of the mass change of the compound 1 (Solid stability test) [%],Crystal form change (Solid stability test),Properties (Solid stability test),IC50 (human PHD2184-418) [µM],"concentration at 8 h ([2]; large intestine tissue (distal), read-out: Colon: concentration in the large intestine tissue after 8 hours) [ng/g]","Kp at 8 h ([2]; large intestine tissue / plasma, read-out: C/P: ratio of Colon and Plasma)","concentration at 8 h ([2]; plasma, read-out: Plasma: plasma test compound concentration after 8 hours) [ng/mL]",SMILES,"Inhibition (suppressive rate on the intestinal permeability, mean) [1] [%]"
0.00,No change,no change,,,,,"COc1ccc(Cn2cnc3nc(-n4cc(C(=O)O)cn4)[nH]c(=O)c32)cc1 [Crystal form IV of the compound 1, 1-(7-(4-Methoxybenzyl)-6-oxo-6,7-dihydro-1H-purin-2-yl)-1H-pyrazole-4-carboxylic acid]",
,,,0.44,209,> 209,< 1,"COc1ccc(Cn2cnc3nc(-n4cc(C(=O)O)cn4)[nH]c(=O)c32)cc1 [Compound 1, 1-(7-(4-Methoxybenzyl)-6-oxo-6,7-dihydro-1H-purin-2-yl)-1H-pyrazole-4-carboxylic acid]",83
0.00,No change,no change,,,,,"COc1ccc(Cn2cnc3nc(-n4cc(C(=O)O)cn4)[nH]c(=O)c32)cc1 [Crystal form III of the compound 1, 1-(7-(4-Methoxybenzyl)-6-oxo-6,7-dihydro-1H-purin-2-yl)-1H-pyrazole-4-carboxylic acid]",

# More lines, now with the values behind:
SMILES,Amount of the mass change of the compound 1 (Solid stability test) [%],Crystal form change (Solid stability test),Properties (Solid stability test),IC50 (human PHD2184-418) [µM],"concentration at 8 h ([2]; large intestine tissue (distal), read-out: Colon: concentration in the large intestine tissue after 8 hours) [ng/g]","Kp at 8 h ([2]; large intestine tissue / plasma, read-out: C/P: ratio of Colon and Plasma)","concentration at 8 h ([2]; plasma, read-out: Plasma: plasma test compound concentration after 8 hours) [ng/mL]","Inhibition (suppressive rate on the intestinal permeability, mean) [1] [%]"
"COc1ccc(Cn2cnc3nc(-n4cc(C(=O)O)cn4)[nH]c(=O)c32)cc1 [Crystal form II of the compound 1, 1-(7-(4-Methoxybenzyl)-6-oxo-6,7-dihydro-1H-purin-2-yl)-1H-pyrazole-4-carboxylic acid]",0.03,No change,no change,,,,,
"COc1ccc(Cn2cnc3nc(-n4cc(C(=O)O)cn4)[nH]c(=O)c32)cc1 [Crystal form I of the compound 1, 1-(7-(4-Methoxybenzyl)-6-oxo-6,7-dihydro-1H-purin-2-yl)-1H-pyrazole-4-carboxylic acid]",−0.05,No change,no change,,,,,
